According to patent US10800791B2, “Triazole ACC inhibitors and uses thereof” (Gilead Apollo, LLC, priority 2015, dated 2020):
Values after ≈ are worked out from the molar mass of the structure shown. Read-outs that look alike come from different tables or passages of the source.

Tests used:
human (hACC2) = human (hACC2) (Homo sapiens, UniProt O00763); test: In vitro ACC inhibition assay (ADP-Glo), hACC2; type: biochemical; conditions: 5 nM ACC2, 20 μM ATP, 20 μM acetyl-CoA
Procedure: The detailed procedure is as follows. […] 10 μL ADP glo reagent was added. […] 20 μL kinase detection reagent was added.

C. albicans = test: Antifungal Activity Assay (broth microtiter MIC), C. albicans; type: cell-based, Candida albicans; conditions: Candida albicans, ATCC90028, 48 h
Summary of the method: (§1)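 Colonies from 24 h Sabouraud dextrose agar plates (35° C) are suspended in RPMI 1640+MOPS and diluted to give 2.5×10^3 CFU/mL in the wells. Plates are set up per CLSI M27-A3. Visual MIC is recorded at 48 h.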

C. krusei = test: Antifungal Activity Assay (broth microtiter MIC), C. krusei; type: cell-based, Candida krusei; conditions: Pichia kudriavzevii, ATCC6258, 48 h
Summary of the method: as §1

C. parapsilosis = test: Antifungal Activity Assay (broth microtiter MIC), C. parapsilosis; type: cell-based, Candida parapsilosis; conditions: Lodderomyces parapsilosis, ATCC22019, 48 h
Summary of the method: as §1

fungal (fACC2) = fungal (fACC2) (UniProt Q00955); conditions: read-out: fACC2 (in vitro ACC2 Inhibition Assay, IC50), ADP-Glo, 5 nM ACC2, 20 μM ATP, 20 μM acetyl-CoA
fungal (fACC2), sequence (Q00955 whole entry): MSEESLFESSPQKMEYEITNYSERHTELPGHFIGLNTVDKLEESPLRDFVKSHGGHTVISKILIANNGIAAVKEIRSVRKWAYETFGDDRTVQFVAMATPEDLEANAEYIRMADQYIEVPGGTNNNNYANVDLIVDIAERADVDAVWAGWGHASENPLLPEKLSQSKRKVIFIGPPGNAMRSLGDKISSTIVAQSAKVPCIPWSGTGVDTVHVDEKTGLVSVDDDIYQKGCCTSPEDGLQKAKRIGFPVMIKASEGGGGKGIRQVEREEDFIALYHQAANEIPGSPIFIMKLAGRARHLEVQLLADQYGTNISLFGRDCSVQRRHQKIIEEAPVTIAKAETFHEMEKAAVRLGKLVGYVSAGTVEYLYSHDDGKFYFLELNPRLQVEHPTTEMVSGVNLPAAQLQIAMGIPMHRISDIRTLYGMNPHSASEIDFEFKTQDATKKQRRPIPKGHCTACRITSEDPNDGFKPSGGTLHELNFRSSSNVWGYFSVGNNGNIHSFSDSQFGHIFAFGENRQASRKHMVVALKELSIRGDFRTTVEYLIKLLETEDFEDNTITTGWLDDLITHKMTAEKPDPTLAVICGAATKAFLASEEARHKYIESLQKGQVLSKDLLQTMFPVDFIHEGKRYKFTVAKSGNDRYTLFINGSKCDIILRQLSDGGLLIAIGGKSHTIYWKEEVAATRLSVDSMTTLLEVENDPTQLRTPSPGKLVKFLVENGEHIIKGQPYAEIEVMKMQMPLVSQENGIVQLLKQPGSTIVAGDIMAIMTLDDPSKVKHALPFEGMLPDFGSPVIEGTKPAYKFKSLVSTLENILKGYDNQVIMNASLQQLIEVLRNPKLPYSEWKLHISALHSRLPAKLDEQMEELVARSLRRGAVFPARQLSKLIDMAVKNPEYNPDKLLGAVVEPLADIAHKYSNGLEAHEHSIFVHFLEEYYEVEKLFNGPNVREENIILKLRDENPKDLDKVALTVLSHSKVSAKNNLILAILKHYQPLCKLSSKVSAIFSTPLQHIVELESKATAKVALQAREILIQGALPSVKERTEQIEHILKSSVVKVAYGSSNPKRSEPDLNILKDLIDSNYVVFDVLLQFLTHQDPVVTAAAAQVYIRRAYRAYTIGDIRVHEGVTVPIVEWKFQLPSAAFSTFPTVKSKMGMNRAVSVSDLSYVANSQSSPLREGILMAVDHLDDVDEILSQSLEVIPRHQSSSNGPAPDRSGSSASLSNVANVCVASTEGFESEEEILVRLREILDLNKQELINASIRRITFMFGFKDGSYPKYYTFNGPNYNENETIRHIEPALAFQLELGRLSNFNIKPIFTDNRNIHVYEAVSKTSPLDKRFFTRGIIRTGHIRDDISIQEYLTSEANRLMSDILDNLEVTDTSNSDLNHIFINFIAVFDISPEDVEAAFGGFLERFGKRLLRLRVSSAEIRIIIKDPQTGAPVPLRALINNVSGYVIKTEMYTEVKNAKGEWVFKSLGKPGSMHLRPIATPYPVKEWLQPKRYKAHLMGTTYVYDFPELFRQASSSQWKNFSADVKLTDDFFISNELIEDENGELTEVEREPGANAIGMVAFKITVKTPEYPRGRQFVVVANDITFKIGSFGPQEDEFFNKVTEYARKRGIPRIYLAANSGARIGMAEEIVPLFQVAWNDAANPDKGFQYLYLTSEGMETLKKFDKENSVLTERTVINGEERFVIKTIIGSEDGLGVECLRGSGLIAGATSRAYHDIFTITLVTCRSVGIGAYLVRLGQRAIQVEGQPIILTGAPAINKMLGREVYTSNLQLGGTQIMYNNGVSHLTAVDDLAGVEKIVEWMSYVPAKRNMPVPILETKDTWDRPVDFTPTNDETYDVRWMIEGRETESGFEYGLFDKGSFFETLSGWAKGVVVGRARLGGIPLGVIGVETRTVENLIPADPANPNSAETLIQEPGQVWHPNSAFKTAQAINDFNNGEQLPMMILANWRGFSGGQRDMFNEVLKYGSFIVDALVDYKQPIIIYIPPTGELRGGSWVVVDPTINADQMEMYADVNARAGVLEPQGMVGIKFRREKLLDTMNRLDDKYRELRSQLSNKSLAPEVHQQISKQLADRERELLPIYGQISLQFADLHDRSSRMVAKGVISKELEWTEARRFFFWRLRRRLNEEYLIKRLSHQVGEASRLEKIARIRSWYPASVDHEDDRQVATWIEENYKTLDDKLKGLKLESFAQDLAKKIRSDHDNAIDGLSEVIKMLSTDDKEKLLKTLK

[1] = Table 3a, ATCC 90028, 3 replicates, MIC recorded at 48 h, read-out: MIC, C. albicans ATCC 90028
[2] = Table 3b (additional results), ATCC 90028, 3 replicates, MIC recorded at 48 h, read-out: MIC, C. albicans ATCC 90028
[3] = Table 3a, ATCC 6258, 3 replicates, MIC recorded at 48 h, read-out: MIC, C. krusei ATCC 6258
[4] = Table 3b (additional results), ATCC 6258, 3 replicates, MIC recorded at 48 h, read-out: MIC, C. krusei ATCC 6258
[5] = Table 3a, ATCC 22019, 3 replicates, MIC recorded at 48 h, read-out: MIC, C. parapsilosis ATCC 22019
[6] = Table 3b (additional results), ATCC 22019, 3 replicates, MIC recorded at 48 h, read-out: MIC, C. parapsilosis ATCC 22019
[7] = read-out: MIC, C. albicans ATCC 90028, Table 3b (additional results), 3 replicates, MIC recorded at 48 h
[8] = read-out: MIC, C. krusei ATCC 6258, Table 3b (additional results), 3 replicates, MIC recorded at 48 h
[9] = read-out: MIC, C. parapsilosis ATCC 22019, Table 3b (additional results), 3 replicates, MIC recorded at 48 h

human (hACC2), sequence (O00763 whole entry): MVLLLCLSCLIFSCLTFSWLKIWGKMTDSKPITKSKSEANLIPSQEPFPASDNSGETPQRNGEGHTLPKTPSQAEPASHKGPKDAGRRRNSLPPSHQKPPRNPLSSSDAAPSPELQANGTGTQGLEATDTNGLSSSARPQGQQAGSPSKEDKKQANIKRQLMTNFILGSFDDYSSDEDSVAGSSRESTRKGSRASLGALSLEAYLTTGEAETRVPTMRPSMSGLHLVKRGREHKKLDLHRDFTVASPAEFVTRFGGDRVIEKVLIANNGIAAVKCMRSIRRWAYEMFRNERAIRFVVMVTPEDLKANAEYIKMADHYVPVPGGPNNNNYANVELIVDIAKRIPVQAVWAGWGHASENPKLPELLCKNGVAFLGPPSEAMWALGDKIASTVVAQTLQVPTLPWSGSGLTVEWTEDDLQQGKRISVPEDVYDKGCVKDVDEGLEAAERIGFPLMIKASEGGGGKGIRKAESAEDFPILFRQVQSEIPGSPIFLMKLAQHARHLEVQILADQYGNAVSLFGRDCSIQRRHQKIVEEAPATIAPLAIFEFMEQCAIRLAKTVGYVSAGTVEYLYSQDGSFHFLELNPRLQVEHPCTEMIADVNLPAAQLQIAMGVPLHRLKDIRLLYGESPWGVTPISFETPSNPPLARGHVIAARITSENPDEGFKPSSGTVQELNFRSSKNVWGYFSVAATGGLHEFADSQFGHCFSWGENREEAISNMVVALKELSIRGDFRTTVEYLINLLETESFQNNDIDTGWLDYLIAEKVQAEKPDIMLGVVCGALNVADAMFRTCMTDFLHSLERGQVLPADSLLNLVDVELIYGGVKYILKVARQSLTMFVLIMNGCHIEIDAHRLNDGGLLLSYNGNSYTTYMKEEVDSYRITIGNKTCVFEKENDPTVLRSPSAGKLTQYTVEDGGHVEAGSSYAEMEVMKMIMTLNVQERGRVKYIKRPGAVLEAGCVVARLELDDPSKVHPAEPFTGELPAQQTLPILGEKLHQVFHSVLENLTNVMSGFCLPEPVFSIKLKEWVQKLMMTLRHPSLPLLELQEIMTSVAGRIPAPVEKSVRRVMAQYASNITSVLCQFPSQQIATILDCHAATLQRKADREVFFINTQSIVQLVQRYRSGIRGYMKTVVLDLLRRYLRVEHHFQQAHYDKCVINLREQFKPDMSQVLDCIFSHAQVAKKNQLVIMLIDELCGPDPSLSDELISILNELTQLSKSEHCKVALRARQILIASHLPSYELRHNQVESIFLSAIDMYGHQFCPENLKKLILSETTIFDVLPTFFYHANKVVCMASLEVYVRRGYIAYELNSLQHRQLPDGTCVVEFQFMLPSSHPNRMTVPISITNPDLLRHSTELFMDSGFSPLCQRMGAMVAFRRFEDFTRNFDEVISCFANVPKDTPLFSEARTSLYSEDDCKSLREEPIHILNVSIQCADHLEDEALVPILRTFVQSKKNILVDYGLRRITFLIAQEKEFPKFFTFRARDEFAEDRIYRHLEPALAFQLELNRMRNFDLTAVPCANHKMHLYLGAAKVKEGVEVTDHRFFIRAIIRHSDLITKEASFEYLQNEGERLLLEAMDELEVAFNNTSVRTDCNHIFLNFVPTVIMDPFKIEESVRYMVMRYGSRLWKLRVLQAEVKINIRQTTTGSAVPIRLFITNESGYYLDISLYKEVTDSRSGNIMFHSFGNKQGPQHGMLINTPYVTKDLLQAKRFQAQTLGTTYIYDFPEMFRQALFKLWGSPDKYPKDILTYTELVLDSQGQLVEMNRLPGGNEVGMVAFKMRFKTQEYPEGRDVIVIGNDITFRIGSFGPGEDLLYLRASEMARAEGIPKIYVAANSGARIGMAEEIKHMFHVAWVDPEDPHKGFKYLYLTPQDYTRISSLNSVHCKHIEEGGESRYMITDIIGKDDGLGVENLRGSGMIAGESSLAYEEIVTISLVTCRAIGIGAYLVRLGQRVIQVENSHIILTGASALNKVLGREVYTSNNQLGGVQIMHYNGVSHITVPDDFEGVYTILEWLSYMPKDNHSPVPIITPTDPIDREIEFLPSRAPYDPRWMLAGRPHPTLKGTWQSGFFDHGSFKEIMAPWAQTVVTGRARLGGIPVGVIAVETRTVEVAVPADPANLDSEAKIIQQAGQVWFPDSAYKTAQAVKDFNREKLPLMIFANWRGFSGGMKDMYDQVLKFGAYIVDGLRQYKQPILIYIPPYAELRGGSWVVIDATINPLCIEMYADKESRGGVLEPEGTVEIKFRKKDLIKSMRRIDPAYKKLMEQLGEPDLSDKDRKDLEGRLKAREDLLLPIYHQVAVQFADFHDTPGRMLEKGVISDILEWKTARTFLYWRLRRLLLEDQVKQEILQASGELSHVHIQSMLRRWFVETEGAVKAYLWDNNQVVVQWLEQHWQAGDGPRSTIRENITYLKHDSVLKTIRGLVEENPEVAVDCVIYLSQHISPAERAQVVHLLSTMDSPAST

| SMILES | IC50 (human (hACC2); Table 2a) | IC50 (human (hACC2); Table 2b, additional results) | MIC (C. albicans; [1]) | MIC (C. albicans; [2]) | MIC (C. krusei; [3]) | MIC (C. krusei; [4]) | MIC (C. parapsilosis; [5]) | MIC (C. parapsilosis; [6]) | IC50 (fungal (fACC2); Table 2a) | IC50 (fungal (fACC2); Table 2b, additional results) | MIC (C. albicans; [7]) | MIC (C. krusei; [8]) | MIC (C. parapsilosis; [9]) |
| --- | --- | --- | --- | --- | --- | --- | --- | --- | --- | --- | --- | --- | --- |
| COc1ccc(F)cc1[C@H](Cn1c(=O)n(C(C)(C)C(=O)N(O)C(C)C)c(=O)c2c(C)c(-n3nccn3)sc21)OCCCO [Compound I-163] | 5 to 10 nM | 5 to 10 nM | 0.25 to 1 µg/mL (≈ 0.404 to 1.62 µM) | 1.01 to 2 µg/mL (≈ 1.63 to 3.23 µM) | 0.25 to 1 µg/mL (≈ 0.404 to 1.62 µM) | 0.25 to 1 µg/mL (≈ 0.404 to 1.62 µM) | 0.25 to 1 µg/mL (≈ 0.404 to 1.62 µM) | 2.01 to 4 µg/mL (≈ 3.25 to 6.47 µM) | 1 to 5 nM | 1 to 5 nM |  |  |  |
| COc1ccc(F)cc1[C@H](Cn1c(=O)n([C@H](C)C(=O)N(C)C(C)C)c(=O)c2c(C)c(-n3nccn3)sc21)OC1CCC(=O)CC1 [Compound I-164] | 5 to 10 nM | 5 to 10 nM | 0.25 to 1 µg/mL (≈ 0.39 to 1.56 µM) | 0.25 to 1 µg/mL (≈ 0.39 to 1.56 µM) | 0.25 to 1 µg/mL (≈ 0.39 to 1.56 µM) | 0.25 to 1 µg/mL (≈ 0.39 to 1.56 µM) | 0.25 to 1 µg/mL (≈ 0.39 to 1.56 µM) | 1.01 to 2 µg/mL (≈ 1.58 to 3.12 µM) | 1 to 5 nM | 1 to 5 nM |  |  |  |
| COc1ccc(F)cc1[C@H](Cn1c(=O)n([C@@H](C)C(=O)N(C)C(C)C)c(=O)c2c(C)c(-n3nccn3)sc21)OC1CCC(=O)CC1 [Compound I-165] | 5 to 10 nM | 5 to 10 nM | 0.25 to 1 µg/mL (≈ 0.39 to 1.56 µM) | 0.25 to 1 µg/mL (≈ 0.39 to 1.56 µM) | 0.25 to 1 µg/mL (≈ 0.39 to 1.56 µM) | 0.25 to 1 µg/mL (≈ 0.39 to 1.56 µM) | 1.1 to 2 µg/mL (≈ 1.72 to 3.12 µM) | 1.01 to 2 µg/mL (≈ 1.58 to 3.12 µM) | 1 to 5 nM | 1 to 5 nM |  |  |  |
| COc1ccc(F)cc1[C@H](Cn1c(=O)n([C@H](C)C(=O)N(C)C(C)C)c(=O)c2c(C)c(-n3nccn3)sc21)O[C@H]1CC[C@@H](O)CC1 [Compound I-166] | 1 to 5 nM | 1 to 5 nM | 0.25 to 1 µg/mL (≈ 0.389 to 1.56 µM) | 0.25 to 1 µg/mL (≈ 0.389 to 1.56 µM) | 0.25 to 1 µg/mL (≈ 0.389 to 1.56 µM) | 1.01 to 2 µg/mL (≈ 1.57 to 3.11 µM) | 0.25 to 1 µg/mL (≈ 0.389 to 1.56 µM) | 1.01 to 2 µg/mL (≈ 1.57 to 3.11 µM) | 0.4 to 1 nM | 0.3 to 1 nM |  |  |  |
| COc1ccc(F)cc1[C@H](Cn1c(=O)n([C@@H](C)C(=O)N(C)C(C)C)c(=O)c2c(C)c(-n3nccn3)sc21)O[C@H]1CC[C@@H](O)CC1 [Compound I-167] | 5 to 10 nM | 5 to 10 nM | 1.1 to 2 µg/mL (≈ 1.71 to 3.11 µM) | 0.25 to 1 µg/mL (≈ 0.389 to 1.56 µM) | 0.25 to 1 µg/mL (≈ 0.389 to 1.56 µM) | 1.01 to 2 µg/mL (≈ 1.57 to 3.11 µM) | 2.1 to 4 µg/mL (≈ 3.27 to 6.22 µM) | 1.01 to 2 µg/mL (≈ 1.57 to 3.11 µM) | 0.4 to 1 nM | 0.3 to 1 nM |  |  |  |
| COc1ccc(F)cc1[C@H](Cn1c(=O)n(C(C)(C)C(=O)NC(C)C)c(=O)c2c(C)c(-n3nccn3)sc21)OCCC(C)(C)O [Compound I-168] | 5 to 10 nM | 5 to 10 nM |  |  |  |  |  |  | 1 to 5 nM | 1 to 5 nM | 0.25 to 1 µg/mL (≈ 0.396 to 1.59 µM) | 0.25 to 1 µg/mL (≈ 0.396 to 1.59 µM) | 0.25 to 1 µg/mL (≈ 0.396 to 1.59 µM) |
| COc1ccc(F)cc1[C@H](Cn1c(=O)n([C@H](C)C(=O)N(C)C(C)C)c(=O)c2c(C)c(-n3nccn3)sc21)OCC(C)(C)O [Compound I-169] | > 40 nM | > 40 nM |  | 0.25 to 1 µg/mL (≈ 0.405 to 1.62 µM) |  | > 4.01 µg/mL |  | 2.01 to 4 µg/mL (≈ 3.26 to 6.49 µM) | 1 to 5 nM | 1 to 5 nM |  |  |  |
| COc1ccc(F)cc1[C@H](Cn1c(=O)n([C@@H](C)C(=O)N(C)C(C)C)c(=O)c2c(C)c(-n3nccn3)sc21)OCC(C)(C)O [Compound I-170] | 10 to 40 nM | 10 to 40 nM |  | 0.25 to 1 µg/mL (≈ 0.405 to 1.62 µM) |  | > 4.01 µg/mL |  | 2.01 to 4 µg/mL (≈ 3.26 to 6.49 µM) | 0.4 to 1 nM | 0.3 to 1 nM |  |  |  |
| COc1ccc(F)cc1[C@H](Cn1c(=O)n([C@H](C)C(=O)NC(C)C)c(=O)c2c(C)c(-n3nccn3)sc21)OCC(C)(C)O [Compound I-171] | 10 to 40 nM | 10 to 40 nM |  |  |  |  |  |  | 1 to 5 nM | 1 to 5 nM | 1.01 to 2 µg/mL (≈ 1.68 to 3.32 µM) | 2.01 to 4 µg/mL (≈ 3.34 to 6.64 µM) | 1.01 to 2 µg/mL (≈ 1.68 to 3.32 µM) |
| COc1ccc(F)cc1[C@H](Cn1c(=O)n([C@@H](C)C(=O)NC(C)C)c(=O)c2c(C)c(-n3nccn3)sc21)OCC(C)(C)O [Compound I-172] | 5 to 10 nM | 5 to 10 nM |  |  |  |  |  |  | 0.4 to 1 nM | 0.3 to 1 nM | 1.01 to 2 µg/mL (≈ 1.68 to 3.32 µM) | 2.01 to 4 µg/mL (≈ 3.34 to 6.64 µM) | 1.01 to 2 µg/mL (≈ 1.68 to 3.32 µM) |
| COc1ccc(F)cc1[C@H](Cn1c(=O)n([C@H](C)C(N)=O)c(=O)c2c(C)c(-n3nccn3)sc21)OCC(C)(C)O [Compound I-173] | 10 to 40 nM | 10 to 40 nM |  | 0.25 to 1 µg/mL (≈ 0.446 to 1.78 µM) |  | > 4.01 µg/mL |  | 2.01 to 4 µg/mL (≈ 3.59 to 7.14 µM) | 1 to 5 nM | 1 to 5 nM |  |  |  |
| COc1ccc(F)cc1[C@H](Cn1c(=O)n([C@@H](C)C(N)=O)c(=O)c2c(C)c(-n3nccn3)sc21)OCC(C)(C)O [Compound I-174] | 5 to 10 nM | 5 to 10 nM |  | 0.25 to 1 µg/mL (≈ 0.446 to 1.78 µM) |  | > 4.01 µg/mL |  | 2.01 to 4 µg/mL (≈ 3.59 to 7.14 µM) | 0.4 to 1 nM | 0.3 to 1 nM |  |  |  |
